Patent US20230416239A1, “COMPOUNDS AND METHODS FOR TREATING A CYTOKINE-MEDIATED DISEASE” (CONSERVATOIRE NATIONAL DES ARTS ET MÉTIERS, priority 2020, published 2023)

Legend:
IL-4 = molecular target: T1, IL-4 (Homo sapiens, UniProt P05112); test: Immunoassay binding test, IL-4; details: for IC50: IL-4 400 ng/ml, receptor 100 ng/ml, read-out: BINDING IL4 IC50
T1 sequence (P05112 25-153): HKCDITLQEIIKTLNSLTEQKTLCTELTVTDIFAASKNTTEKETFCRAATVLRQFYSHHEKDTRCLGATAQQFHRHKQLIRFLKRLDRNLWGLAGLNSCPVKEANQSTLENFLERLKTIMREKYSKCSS
Description: (§1) Microtiter plates (96 wells) are covered with 100 μl of receptor per well, and incubated overnight at 4° C. The following day, after 2 washes in PBS/Tween20, the plates are saturated with 150 μl of PBS/BSA 2% per well, for 2 h at 37° C. Synthetic compounds are diluted in series (final concentrations: 100 to 0.78 μM) then a fixed amount of cytokine in PBS/BSA 1% is added to the compounds, in a final volume of 120 μl per well. […] The cytokine is diluted in series (six concentrations) in a final volume of 120 μl per well. The cytokine is used in the absence of small molecule as well as the range of SPD304 as positive controls and the absence of cytokine and synthetic molecule as negative control. The different mixtures are incubated for 2 h at 37° C. 100 μl of each mixture are then transferred to the microtiter plate, respecting the plate plan previously defined and incubated overnight at 4° C. After three washes, 100 μl of biotinylated anti-cytokine secondary antibody are added to each well, then incubated for 2 h at 37° C. After three washes, 100 μl of Avidin-HRP (1/500th dilution) are added and incubated for 30 minutes at 37° C. […] The plates are then read with a spectrophotometer at 450 nm, measuring the optical density for each well.
(§2) This binding test is carried out with different cytokines: TNFa, IL-4, IL-6 and IL-13. For IL-6, the incubation of molecules with the cytokine also requires the presence of IL-6Ra at a final concentration of 200 ng/ml.
(§3) The final concentrations used for each of the cytokines are presented below: […]

TNFα = TNFα (Homo sapiens, UniProt P01375); test: Immunoassay binding test, TNFa; details: compounds 100 to 0.78 μM; TNFα 10 ng/ml, receptor 100 ng/ml; read-out: BINDING TNF IC50
Description: as §1, with “C.” for “C. Synthetic compounds are diluted in series (final concentrations: 100 to 0.78 μM) then a fixed amount of cytokine in PBS/BSA 1% is added to the compounds, in a final volume of 120 μl per well.”, “The cytokine is used in the absence of small molecule as well as the range of SPD304 as positive controls and the absence of cytokine and synthetic molecule as negative control.” left out
as §2, §3

IL-13 = IL-13 (Homo sapiens, UniProt P35225); test: Immunoassay binding test, IL-13; details: for IC50: IL-13 400 ng/ml, receptor 100 ng/ml, read-out: BINDING IL13 IC50
Description: as §1, with “The cytokine is used in the absence of small molecule as well as the range of SPD304 as positive controls and the absence of cytokine and synthetic molecule as negative control.” left out
as §2, §3

IL-6 = IL-6 (Homo sapiens, UniProt P05231); test: Immunoassay binding test, IL-6 (gp130 receptor, IL-6Ra present); details: IL-6Ra 200 ng/ml
Description: as §1, §2, §3

TNFa/TNFRI interaction = TNFa/TNFRI interaction (Homo sapiens, UniProt P01375); test: TNFa/TNFRI interaction displacement test; format: binding; details: for Displacement (%): compounds at 50 μM, human TNFRI 100 ng/ml; for Displacement EC50 TNFa in presence of compound: Difference: Compound EC50 minus SPD304 EC50;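 for Displacement EC50 TNFa in presence of compound: Difference: SPD304 reference at 20 µM final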
Description: Microtiter plates (96 wells) are covered with 100 μl per well of human TNFRI, at a concentration of 100 ng/ml, then incubated overnight at 4° C. The following day, after two washes in PBS/Tween20, the plates are saturated with 150 μl of PBS/BSA 2% for 2 h at 37° C.
100 μl of each mixture are then transferred to the microtiter plate, respecting the established plate plan and incubated overnight at 4° C.
After three washes, 100 μl of biotinylated anti-cytokine secondary antibody are added to each well and incubated for 2 h at 37° C. After three washes, 100 Avl Avidin-HRP (dilution 1/500th) are added and incubated for 30 minutes at 37° C. […] The plates are then read with a spectrophotometer at 450 nm, measuring the optical density (OD) for each well.

TNFα, sequence (P01375 77-233 limits assumed, species assumed): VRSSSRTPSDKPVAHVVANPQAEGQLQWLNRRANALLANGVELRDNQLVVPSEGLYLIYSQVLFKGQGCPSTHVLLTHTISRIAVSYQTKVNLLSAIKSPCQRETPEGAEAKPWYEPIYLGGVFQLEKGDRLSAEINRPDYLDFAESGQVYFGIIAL
TNFa/TNFRI interaction, sequence (P01375 77-233 limits assumed): as the sequence (P01375 77-233 limits assumed, species assumed) above
IL-13, sequence (P35225 25-146, species assumed): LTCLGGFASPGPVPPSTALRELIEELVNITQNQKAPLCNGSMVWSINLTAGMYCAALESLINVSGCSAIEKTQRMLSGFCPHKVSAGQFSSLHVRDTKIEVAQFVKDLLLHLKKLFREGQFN
IL-6, sequence (P05231 30-212, species assumed): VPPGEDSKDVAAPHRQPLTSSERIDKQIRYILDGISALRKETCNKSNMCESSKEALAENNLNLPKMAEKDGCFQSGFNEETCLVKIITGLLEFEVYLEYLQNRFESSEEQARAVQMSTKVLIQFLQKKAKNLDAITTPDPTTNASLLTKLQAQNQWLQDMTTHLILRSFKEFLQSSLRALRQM

| Structure (SMILES) | BINDING IL4 % Neutra at 100 μM (IL-4) [%] | IC50 (TNFα) [µM] | BINDING IL13 % Neutra at 100 μM (IL-13) [%] | BINDING IL6 % Neutra at 100 μM (IL-6) [%] | Displacement (%) (TNFa/TNFRI interaction) | IC50 (IL-4) [µM] | IC50 (IL-13) [µM] | Displacement EC50 TNFa in presence of compound: Difference (TNFa/TNFRI interaction) [µg/mL] |
| --- | --- | --- | --- | --- | --- | --- | --- | --- |
| O=C(NCCCCN(Cc1cccnc1F)Cc1cn(S(=O)(=O)c2ccccc2)c2ccccc12)N1CCOCC1 [Compound 84] | 0 | 21.2 | 0 | 3 | 111 | – | – | – |
| CCCCN(CCOCCN(Cc1cccnc1F)Cc1cn(S(=O)(=O)c2ccccc2)c2ccccc12)C1CCCCC1 [Compound 102] | 83.2 | 7.2 | 39.2 | 0 | 138 | 6.3 | > 25 | – |
| CN(CCCCN(Cc1cccc(F)n1)Cc1cn(S(=O)(=O)c2ccccc2)c2ccccc12)C1CCCCC1 [Compound 51, N1-cyclohexyl-N4-((6-fluoropyridin-2-yl)methyl)-N1-methyl-N4-((1-(phenylsulfonyl)-1H-indol-3-yl)methyl)butane-1,4-diamine] | 87.2 | 7.9 | 89.4 | 0 | 153 | 6.7 | 25.9 | – |
| Fc1ncccc1CN(Cc1cn(-c2cccc(C(F)(F)F)c2)c2ccccc12)CC1CCCN(C2CCCCC2)C1 (stereo not shown) [Compound 42] | 94.4 | 15.6 | 86.3 | 0 | 177 | 6.4 | 21.3 | 0.0083 |
| CN(CCCCCN(Cc1cccnc1F)Cc1cn(S(=O)(=O)c2ccccc2)c2ccccc12)C1CCCCC1 [Compound 52, N1-cyclohexyl-N5-((2-fluoropyridin-3-yl)methyl)-N1-methyl-N5-((1-(phenylsulfonyl)-1H-indol-3-yl)methyl)pentane-1,5-diamine] | 91.7 | 9.1 | 88.1 | 0 | 145 | 5 | 15.8 | – |
| CN(CCCCN(Cc1ccn(S(=O)(=O)c2ccccc2)c1)Cc1cccnc1F)C1CCCCC1 [Compound 91, N1-cyclohexyl-N4-((2-fluoropyridin-3-yl)methyl)-N1-methyl-N4-((1-(phenylsulfonyl)-1H-pyrrol-3-yl)methyl)butane-1,4-diamine] | 87.5 | 27.5 | 35.8 | 0 | 87 | 16.4 | > 50 | – |
| CN(CCCN(Cc1ccncc1)Cc1cn(-c2cccc(C(F)(F)F)c2)c2ccccc12)C1CCCCC1 [Compound 14] | 98.4 | 11.8 | 91.2 | 2.8 | 149 | 5.3 | > 50 | – |
| CCn1cc(CN(CCCCN(C)C2CCCCC2)Cc2cccnc2F)c2ccccc21 [Compound 96] | 74.5 | > 50 | 0 | 1 | 26 | 62.3 | – | – |
| CCCCN(CCCCN(Cc1cccnc1F)Cc1cn(S(=O)(=O)c2ccccc2)c2ccccc12)C1CCCCC1 [Compound 68, N′-butyl-N′-cyclohexyl-N^4-((2-fluoropyridin-3-yl)methy)-N^4-((1-(phenylsulfonyl)-1H-indol-3-yl)methyl)butane-1,4-diamine] | 86.0 | 10 | 81.6 | 0 | 219 | 4.2 | 17.3 | – |
| CN(CCCCN(Cc1cccnc1F)Cc1cn(S(=O)(=O)c2ccccc2)c2ccccc12)C1CCCC1 [Compound 72, N′-cyclopentyl-N^4-((2-fluoropyridin-3-yl)methyl)-N′-methyl-N^4-((1-(phenylsulfonyl)-1H-indol-3-yl)methyl)butane-1,4-diamine] | 89.8 | 9.7 | 92.1 | 3 | 208 | 8.1 | > 50 | – |
| O=S(=O)(c1ccccc1)n1cc(CN(CCCCCNC2CCCCC2)Cc2cccc(F)n2)c2ccccc21 [Compound 48, N1-cyclohexyl-N5-((6-fluoropyridin-2-yl)methyl)-N5-((1-(phenylsulfonyl)-1H-indol-3-yl)methyl)pentane-1,5-diamine] | 91.2 | 13.7 | 89.9 | 1 | 91 | 7 | 17.8 | – |
| CN(C)CCCCCN(Cc1cccc(F)n1)Cc1cn(S(=O)(=O)c2ccccc2)c2ccccc12 [Compound 90] | 94.0 | 15.5 | 69.7 | 0 | 137 | 5.2 | > 50 | – |
| FC(F)(F)c1cccc(-n2cc(CN(Cc3ccccn3)CC3CCCN(C4CCCCC4)C3)c3ccccc32)c1 (stereo not shown) [Compound 2] | 97.8 | 19.9 | 97.1 | 2 | 183 | 3.3 | 1.4 | 0.0149 |
| O=S(=O)(c1ccccc1)n1cc(CN(CCCCNC2CCCCC2)Cc2cccc(F)n2)c2ccccc21 [Compound 45, N1-cyclohexyl-N4-((6-fluoropyridin-2-yl)methyl)-N4-((1-(phenylsulfonyl)-1H-indol-3-yl)methyl)butane-1,4-diamine] | 90.5 | 10.4 | 86.5 | 0 | 114 | 7.6 | > 50 | – |
